Reference: the NIST ThermoML archive (doi:10.1016/j.jct.2006.12.005)

Assays:
[1] = refractive index (Na D-line) (dimensionless); conditions: 101.33 kPa, Liquid, Standard Abbe refractometry
[2] = for speed of sound / mass density / viscosity: 101.33 kPa, Liquid; for speed of sound: VIBRATING TUBE DENSIMETER; for mass density: Vibrating tube method; for surface tension liquid-gas: Ring tensiometer; for viscosity: Capillary tube (Ostwald / Ubbelohde) method

CCCCn1cc[n+](C)c1.F[P-](F)(F)(F)(F)F [1-butyl-3-methylimidazolium hexafluorophosphate]
Conditions	mass density, [2] [kg/m3]	refractive index, [1]	speed of sound, [2] [m/s]	surface tension liquid-gas, [2] [mN/m]	viscosity, [2] [mPa·s]
278.15 K	1384.36	–	1492.5	–	–
283.15 K	1380.1	1.41332	1480.8	–	–
288.15 K	1375.83	1.41198	1468.2	43.7	–
293.15 K	1371.56	1.41069	1455.3	43.2	340.49
298.15 K	1367.3	1.40937	1442.8	42.9	247.06
303.15 K	1363.03	1.40808	1430.6	42.6	184.23
308.15 K	1358.76	1.40674	1419	42.2	140.57
313.15 K	1354.53	1.40543	1406.4	41.8	108.9
318.15 K	1350.32	1.40411	1394.9	–	85.9
323.15 K	1346.12	1.40282	1383.5	–	68.79
328.15 K	1341.97	1.40151	1372.2	–	–
333.15 K	1337.83	1.40024	1360.9	–	–
338.15 K	1333.7	1.39896	1349.2	–	–
343.15 K	1329.61	1.39771	1337.2	–	–

CCCCCCn1cc[n+](C)c1.F[P-](F)(F)(F)(F)F [1-hexyl-3-methylimidazolium hexafluorophosphate]
[2]
Conditions	speed of sound [m/s]	surface tension liquid-gas [mN/m]	viscosity [mPa·s]
278.15 K	1490.7	–	–
283.15 K	1470.8	–	–
288.15 K	1453.6	–	–
293.15 K	1438.3	37.5	676.82
298.15 K	1424.2	37.1	475.66
303.15 K	1411	36.8	342.52
308.15 K	1398.5	36.5	252.69
313.15 K	1386.4	36.1	187.36
318.15 K	1374.6	–	143.58
323.15 K	1363	–	111.9
328.15 K	1351.7	–	–
333.15 K	1340.3	–	–
338.15 K	1329.3	–	–
343.15 K	1318.4	–	–

CCCCCCCC[n+]1ccn(C)c1.F[P-](F)(F)(F)(F)F [1-octyl-3-methylimidazolium hexafluorophosphate]
Conditions	mass density, [2] [kg/m3]	refractive index, [1]	speed of sound, [2] [m/s]	surface tension liquid-gas, [2] [mN/m]	viscosity, [2] [mPa·s]
278.15 K	1251.83	–	1481.6	–	–
283.15 K	1247.65	1.42716	1460	–	–
288.15 K	1243.43	1.42578	1440.8	–	–
293.15 K	1239.57	1.4244	1423.7	36.5	999.08
298.15 K	1235.72	1.42302	1407.8	36.2	690.6
303.15 K	1231.88	1.42165	1393	35.9	489.02
308.15 K	1228.04	1.42028	1378.9	35.6	355.31
313.15 K	1224.21	1.41887	1365.8	35.2	263.23
318.15 K	1220.37	1.41749	1353.2	–	196.23
323.15 K	1216.62	1.4161	1341	–	150.57
328.15 K	1212.92	1.41471	1329.1	–	–
333.15 K	1209.21	1.41334	1317.5	–	–
338.15 K	1205.51	1.41195	1305.8	–	–
343.15 K	1201.82	1.41056	1294.6	–	–
